These results are taken from patent US6221637A, “Xanthene derivatives, their production and use” (Takeda Chemical Industries, Ltd., priority 1996, dated 2001).

The structures appear in SMILES notation. In brackets after ≈: the same amount, converted by molar mass.

The target of one data set is T1, binding of B7-1 to CD28 (Homo sapiens, UniProt P10747+P33681).
T1 construct: ligating the Fc region of human IgG to the C-terminal side of the extracellular region of B7-1; Fc region of human IgG (from plasmid pTB1455); expressed in transfected cells; soluble B7-1-Ig made in house by sB7-1-Ig-CHO-20 and purified from its supernatant
Put plainly: Binding inhibition test using soluble B7-1-Ig. Conditions: 10 μg/ml soluble B7-1-Ig; fixed CD28-expressing CHO cells; 30 minutes at room temperature; read-out: IC50 (concentration for 50% inhibition of binding) (converted). How it is done:
b) Expression of CD28 in CHO cells
Using petri dishes 10 cm in diameter, 1×10^5 dihydrofolate reductase deficient (DHFR^-) CHO cells were cultured in an αMEM medium containing 10% fetal bovine serum for 24 hours. To these cells, the CD28cDNA expression plasmid pAKKO-CD28as obtained in Reference Example 1 (10 μg) was introduced by the calcium phosphate method. Forty-eight hours later, the medium was replaced with an αMEM medium (no nucleic acid contained) containing 10% dialyzed fetal bovine serum, and cells incorporating the plasmid in their chromosome were selected. For these selected cells, CD28 expression was examined by flow cytometry (EPICS ELITE, COULTER), and cells showing high expression of CD28were obtained. These cells were cloned by the limiting dilution method to obtain CD28-CHO-11, a cell line that stably expresses high amount of CD28. […]
c) Establishment of CHO cells that produce soluble B7-1-Ig
Using petri dishes 10 cm in diameter, 1×10^5 dihydrofolate reductase deficient (DHFR^31 ) CHO cells were cultured in an αMEM medium containing 10% fetal bovine serum for 24 hours. To these cells, 10 μg of the expression plasmid encoding soluble B7-1-Ig as obtained in Reference Example 22 was introduced by the calcium phosphate method. Forty-eight hours later, the medium was replaced with an αMEM medium (no nucleic acid contained) containing 10% dialyzed fetal bovine serum, and cells incorporating the plasmid into their chromosome were selected. For these selected cells, the amount of soluble B7-1-Ig produced in the culture supernatant was measured by EIA, and cells showing high productivity were obtained. These cells were cloned by the limiting dilution method to obtain sB7-1-Ig-CHO-20, a cell line that stably produces soluble B7-1-Ig. […]
d) Preparation of soluble B7-1-Ig
Using petri dishes 15 cm in diameter, the soluble B7-1-Ig-producing CHO cells obtained in term c) above (sB7-1-Ig-CHO-20) were cultured in an αMEM medium containing 10% fetal bovine serum to yield 5 l of culture supernatant. This culture supernatant was crudely purified using a protein G column (Chromatop Superprotein G, […] I.D.×10 cm, NGK Insulators, Ltd.) and further purified by gel filtration chromatography (TSKgel G3000SW, […] I.D.×[…], Tosoh) to yield 20 mg of a purified standard preparation.
Binding inhibition test using soluble B7-1-Ig
The CHO cells that expressed CD28obtained in Example 122 were suspended in an αMEM medium (no nucleic acid contained) containing 10% dialyzed fetal bovine serum, seeded into 96-well microplates (flat bottom) to 3×10^4 cells/well, and cultured in the presence of 5% CO2 at 37° C. for 48 hours. The culture supernatant was removed by aspiration from each plate to which cells adhered, followed by the addition of phosphate buffer saline (PBS) containing 0.5% paraformaldehyde to fix the cells. After this plate was washed twice with PBS containing 10% Block Ace (Snow Brand Milk Products), 10 μg/ml soluble B7-1-Ig and a sample were added to each well. Binding reaction was carried out by keeping the plate standing at room temperature for 30 minutes. After the reaction, the plate was washed twice with PBS containing 10% Block Ace (Snow Brand Milk Products), followed by the addition of peroxidase-labeledanti-human IgG (Cappel) and 2 hours of reaction. The plate was further washed twice with PBS containing 10% Block Ace (Snow Brand Milk Products), after which 100 μl of a 0.1M citrate buffer containing 6.5 mg/ml ortho-phenylenediamine dihydrochloride (Wako Pure Chemical Industries) and 0.06% hydrogen peroxide was added to each well. Twenty minutes later, the coloring reaction was stopped with 2N sulfuric acid, and the absorbance at 492 nm was determined using a plate reader (BIO-RAD Model 1450).

The subject of data set [1] is interleukin 2 (IL-2) production by human peripheral blood T cells. In words: Inhibition test for interleukin 2 (IL-2) production by human peripheral blood T cells. Conditions: anti-CD3 antibody coated plates; CHO cells expressing B7-1; 48 hours, 37° C.; read-out: IC50 value (concentration for 50% suppression of interleukin-2 production). The format is cell-based. How it is done: a) Expression of B7-1 in CHO cells
Using petri dishes 10 cm in diameter, 1×10^5 Chinese hamster ovary (CHO) cells were cultured in an αMEM medium containing 10% fetal bovine serum for 24 hours. To these cells, the B7-1 cDNA expression plasmid pME-B7-1 as obtained in Reference Example 1 (10 μg) and the neomycin resistance expression plasmid pME-neo (1 μg) were introduced by the calcium phosphate method. Forty-eight hours later, GENETICIN (G418 sulfate, GIBCO) was added to a final concentration of 0.5 mg/ml, and cells that acquired neomycin resistance were selected. For these selected cells, B7-1 expression was examined by flow cytometry (EPICS ELITE, COULTER), and cells showing high expression of B7-1 were obtained. These cells were cloned by the limiting dilution method to obtain B7-1-CHO-22, a cell line that stably expresses high amount of B7-1.
Inhibition test for interleukin 2 (IL-2) production by human peripheral blood T cells
Blood was collected from a healthy normal human, overlaid on lymphocyte separation medium (LSM, Organon Teknica Co.), and centrifuged at room temperature at 2,000 rpm for 20 minutes to obtain human peripheral blood mononuclear cells. […] The IL-2 produced in the culture supernatant was quantified using the HUMAN INTERLEUKIN-2 EIA KIT (Cayman Chemical Co.).

A further data set deals with mice. Put plainly: Toxicity test. The format is in vivo. To be noted: intraperitoneally, 400 mg/kg.

T1 sequence (P10747 19-220): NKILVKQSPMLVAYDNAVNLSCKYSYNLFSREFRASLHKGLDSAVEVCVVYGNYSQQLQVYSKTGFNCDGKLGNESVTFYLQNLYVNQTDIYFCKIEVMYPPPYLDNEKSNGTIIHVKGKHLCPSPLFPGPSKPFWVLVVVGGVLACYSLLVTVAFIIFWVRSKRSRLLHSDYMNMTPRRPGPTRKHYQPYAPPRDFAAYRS
T1 sequence (P33681 with tags, fused parts or gaps): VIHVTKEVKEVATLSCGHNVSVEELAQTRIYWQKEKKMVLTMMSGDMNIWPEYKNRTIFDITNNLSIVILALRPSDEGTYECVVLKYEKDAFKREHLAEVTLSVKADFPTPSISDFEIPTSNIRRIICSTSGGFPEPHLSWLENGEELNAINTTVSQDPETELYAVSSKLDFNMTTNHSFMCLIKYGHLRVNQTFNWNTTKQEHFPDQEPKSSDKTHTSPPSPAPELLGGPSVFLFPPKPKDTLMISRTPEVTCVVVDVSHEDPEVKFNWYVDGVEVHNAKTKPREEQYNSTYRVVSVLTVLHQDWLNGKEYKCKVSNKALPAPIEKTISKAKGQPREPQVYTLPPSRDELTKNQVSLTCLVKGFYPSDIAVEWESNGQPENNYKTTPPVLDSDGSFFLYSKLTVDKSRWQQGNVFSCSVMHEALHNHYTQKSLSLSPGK

As to `COC(=O)c1c(SCC(=O)O)c(O)cc2oc3c(Cl)c(C)c(Cl)c(O)c3c(=O)c12` [Compound 1], the results for the IC50 (at binding of B7-1 to CD28; in data set [1]) were 305 nM and 10 µg/mL (≈ 21.8 µM), respectively. For the same compound, the “deaths after intraperitoneal administration” value in the data set with mice is “no animals died”.

Regarding `COC(=O)c1c([S+]([O-])CC(=O)O)c(O)cc2oc3c(Cl)c(C)c(Cl)c(O)c3c(=O)c12` (centres unmarked) [Compound 17, methyl 2-(carboxymethylsulfinyl)-5,7-dichloro-3,8-dihydroxy-6-methyl-9-oxo-9H-xanthene-1-carboxylate], the IC50 on binding of B7-1 to CD28 was < 210 nM.

Consider `CCC(=O)Oc1c(Cl)c(C)c(Cl)c2oc3cc(O)c(SCC(=O)O)c(C(=O)OC)c3c(=O)c12` [Compound 27], for which, at binding of B7-1 to CD28, the IC50 was < 194 nM.

In the case of `COC(=O)c1c(SCC(=O)O)c(O)c(I)c2oc3c(Cl)c(C)c(Cl)c(O)c3c(=O)c12` [Compound 40], at binding of B7-1 to CD28, the IC50 is 171 nM.

As for `COC(=O)c1c([S+]([O-])CC(=O)O)c(O)c(I)c2oc3c(Cl)c(C)c(Cl)c(O)c3c(=O)c12` (centres unmarked) [Compound 54, methyl 2-(carboxymethylsulfinyl)-5,7-dichloro-3,8-dihydroxy-4-iodo-6-methyl-9-oxo-9H-xanthene-1-carboxylate], the IC50 on binding of B7-1 to CD28 was < 166 nM.

Consider `COC(=O)c1c(SCC(=O)O)c(O)c([N+](=O)[O-])c2oc3c(Cl)c(C)c(Cl)c(O)c3c(=O)c12` [Compound 132], for which the IC50 at binding of B7-1 to CD28 is 238 nM.
